Results from patent publication US20100035873A1 (Pfizer Inc, priority 2008, published 2010).
pKi: −log10 of the molar value.

target: T1, human kappa opioid receptor (Homo sapiens, UniProt P41145); experiment: Binding assay, [3H]diprenorphine displacement on membranes from CHO cells (kappa assay); conditions: membranes from CHO cells expressing human kappa opioid receptor, ranges given when more than one data point
T1 construct: expressed in transfected cells; host or cells: CHO cells
Experimental: Binding assays on membranes from CHO cells expressing either human kappa, mu or delta opioid receptors were performed according to standard procedures. Briefly, frozen cell paste (70-80-mgs per 96 well plate) is homogenized in 50 mM Tris HCl buffer (pH 7.4 @ 4 degrees C.) containing 2.0 mM MgCl2 using a Polytron and spun in a centrifuge at 40,000 g for ten minutes. The final pellet is resuspended in assay buffer (50 mM Tris HCl buffer (pH 7.4) containing 1 mM EDTA, 5 mM MgCl2). Incubations were initiated by the addition of tissue to 96-well plates containing test drugs and 0.4-1 nM [3H]diprenorphine in a final volume of 250 ul). Non-specific binding was determined by radioligand binding in the presence of a saturating concentration of naltrexone (10 uM). After one hour incubation period at room temperature, assay samples were rapidly filtered through Whatman GF/B filters and rinsed with ice-cold 50 mM Tris buffer (pH 7.4). Membrane bound [3H]diprenorphine levels were determined by liquid scintillation counting of the filters in BetaScint. […] Ki values were calculated according to the Cheng Prusoff equation, Ki=IC50/(1+(L/Kd)), where L is the concentration of the radioligand used in the experiment and the Kd value is the dissociation constant for the radioligand (determined previously by saturation analysis).

T1 sequence (P41145 whole entry): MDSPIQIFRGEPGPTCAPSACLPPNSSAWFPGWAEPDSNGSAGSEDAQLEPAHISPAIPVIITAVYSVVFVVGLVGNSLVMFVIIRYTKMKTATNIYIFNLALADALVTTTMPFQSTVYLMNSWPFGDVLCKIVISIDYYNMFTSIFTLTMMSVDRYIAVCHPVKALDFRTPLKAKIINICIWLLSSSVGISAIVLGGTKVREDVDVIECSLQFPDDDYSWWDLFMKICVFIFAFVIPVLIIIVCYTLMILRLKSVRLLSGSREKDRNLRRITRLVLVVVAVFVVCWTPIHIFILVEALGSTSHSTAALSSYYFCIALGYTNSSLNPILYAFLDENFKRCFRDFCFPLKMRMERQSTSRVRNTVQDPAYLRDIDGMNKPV

Compared with `O=S(=O)(c1ccccc1-c1ccc(CNC2C[C@H]3CC[C@@H]2C3)cc1)N1CCCC1` (stereo partly drawn) [Example 4a, (1R,4S)-Bicyclo[2.2.1]hept-2-yl-[2′-(pyrrolidine-1-sulfonyl)-biphenyl-4-ylmethyl]-amine], `O=S(=O)(c1ncccc1-c1ccc(CNC2CC3CCC2C3)cc1)N1CCCC1` [Example 4t, (5S,6R)-Bicyclo[2.2.1]hept-2-yl-{4-[2-(pyrrolidine-1-sulfonyl)-pyridin-3-yl]-benzyl}-amine] is lower in pKi: 9.18 to 9.24 for the first, 8.24 for the second. The first binds more tightly here.

First: CC1(C)CCCN(Cc2ccc(-c3ccccc3S(=O)(=O)N3CCCC3)cc2)C1 [Example 4e, 3,3-Dimethyl-1-[2′-(pyrrolidine-1-sulfonyl)-biphenyl-4-ylmethyl]-piperidine]
Second: O=S(=O)(c1ccccc1-c1ccc(CNC2CCOC2)cc1)N1CCCC1 (centres unmarked) [Example 4i, [2′-(Pyrrolidine-1-sulfonyl)-biphenyl-4-ylmethyl]-(tetrahydro-furan-3-yl)-amine]
The pKi of the first is higher: 8.20 to 8.30 for the first, 7.89 to 8.18 for the second.

First: CC(C)CNCc1ccc(-c2ccccc2S(=O)(=O)N2CCC[C@H]2C)cc1 [Example 4j, Isobutyl-[2′-((R)-2-methyl-pyrrolidine-1-sulfonyl)-biphenyl-4-ylmethyl]-amine]
Second: CC(C)CNCc1ccc(-c2ccccc2S(=O)(=O)N2CCC[C@H]2C)cc1F [Example 4r, [3-Fluoro-2′-((R)-2-methyl-pyrrolidine-1-sulfonyl)-biphenyl-4-ylmethyl]-isobutyl-amine]
The pKi of the first is higher: 8.58 to 9.05 for the first, 8.08 to 8.46 for the second.

`C[C@@H]1COCCN1S(=O)(=O)c1ccccc1-c1ccc(CNCCC(C)(C)C)cc1` [Example 4k, (3,3-Dimethyl-butyl)-[2′-((R)-3-methyl-morpholine-4-sulfonyl)-biphenyl-4-ylmethyl]-amine] and `C[C@@H]1COCCN1S(=O)(=O)c1ccccc1-c1ccc(CNCCC(C)(C)C)c(F)c1` [Example 4o] cannot be ordered by pKi: 8.63 to 8.92 for the first, 8.29 to 8.68 for the second.

`O=S(=O)(c1ccccc1-c1ccc(CN2C[C@H]3CCC[C@@H]2C3)c(F)c1)N1CCCC1` [Example 4m, (1S,5R)-6-[3-Fluoro-2′-(pyrrolidine-1-sulfonyl)-biphenyl-4-ylmethyl]-6-aza-bicyclo[3.2.1]octane] and `C[C@@H]1COCCN1S(=O)(=O)c1ccccc1-c1ccc(CNC2CC3CCC2C3)c(F)c1` (stereo partly drawn) [Example 4p, Bicyclo[2.2.1]hept-2-yl-[3-fluoro-2′-((R)-3-methyl-morpholine-4-sulfonyl)-biphenyl-4-ylmethyl]-amine] cannot be ordered by pKi: 8.16 to 8.85 for the first, 8.17 to 8.57 for the second.

First: CC(C)CNCc1ccc(-c2ccccc2S(=O)(=O)N(C)C(C)C)cc1 [Example 4v, 4′-(Isobutylamino-methyl)-biphenyl-2-sulfonic acid isopropyl-methyl-amide]
Second: COc1cc(-c2ccccc2S(=O)(=O)N2CCCC2)ccc1CNCC(C)C [Example 4y, Isobutyl-[3-methoxy-2′-(pyrrolidine-1-sulfonyl)-biphenyl-4-ylmethyl]-amine]
The pKi of the first is higher: 8.21 for the first, 7.61 to 7.90 for the second. The first binds more tightly here.

`CC(C)(C)CCNCc1ccc(-c2ncccc2S(=O)(=O)N2CCCC2)cc1` [Example 4w, (3,3-Dimethyl-butyl)-{4-[3-(pyrrolidine-1-sulfonyl)-pyridin-2-yl]-benzyl}-amine] and `O=S(=O)(c1cccnc1-c1ccc(CNC2C[C@@H]3CC[C@H]2C3)cc1)N1CCCC1` (stereo partly drawn) [Example 4x, (1S,4R)-Bicyclo[2.2.1]hept-2-yl-{4-[3-(pyrrolidine-1-sulfonyl)-pyridin-2-yl]-benzyl}-amine] are within 0.2 log units of each other in pKi: 7.99 for the first, 7.91 for the second.
